Experimental data taken from patent US6090945A, “Tetrahydro-beta-carbolines” (Eli Lilly and Company, priority 1998, dated 2000).
pIC50, pKi: −log10 of the molar value. Counter-ions that a name gives are not always drawn. Like-named read-outs stand apart in the source and are kept apart here.

Key:
[1] = target: 5-HT2 receptor (Rattus norvegicus, UniProt P14842); assay: 5-HT2 radioligand binding assay ([3H]ketanserin displacement); design: species or system rat (Sprague-Dawley cerebral cortex)
[2] = target: T1, cloned rat 5-HT2B receptor (Rattus norvegicus, UniProt P30994); assay: 5-HT2B radioligand binding ([3H]5-HT), cloned rat receptor; conditions: [3H]5-HT 2 nM, read-out: Rat 2B binding (IC50 converted to Ki)
T1 construct: expressed in transfected cells
Method: (§1) RAdioligand Binding Studies for 5-HT2 B:
Membrane preparation from transformed cells. Suspension cells expressing the cloned rat 5-HT2B receptor were harvested by centrifugation at 200×g for 15 min at 4° C. […] Membranes for the binding assays were prepared by vortexing the pellet in 50 mM Tris-HCl, pH 7.4 (0.5×10^9 cells/30 ml). The tissue suspension was then centrifuged at 39,800×g for 10 min at 4° C. This procedure was repeated for a total of three washes, with a 10 minute incubation at 37° C. between the first and second wash.
[^3 H]5-HT binding studies. Binding assays were automated using a Biomek 1000 (Beckman Instruments, Fullerton, Calif.) and were performed in triplicate in 0.8 ml total volume. Membrane suspension, 200 μl, (0.04-0.27 mg protein) and 200 μl of drug dilution in water were added to 400 μl of 67 mM Tris-HCl, pH 7.4, containing [^3 H]5-HT, pargyline, CaCl2, and L-ascorbic acid. Final concentrations of pargyline, CaCl2 and L-ascorbic acid were 10 μM, 3 mM and 0.1%, respectively. […] The amount of [^3 H]5-HT trapped on the filters was determined by liquid scintillation spectrometry (Ready Protein and Beckman LS 6000IC, Beckman Instruments, Fullerton, Calif.). For the saturation experiments, actual free radioligand concentrations were determined by sampling the supernatant of parallel saturation experiments in which bound radioactivity had been separated by centrifugation. […] Protein was determined by the method of Bradford, using bovine serum albumin as the standard.
(§2) The Kd and Bmax values from the saturation assays were determined for best fit to a one-site or a two-site binding model using a partial F-test. […] The IC50 values from the competition assays, the binding parameters for the IP3 standard curve and the EC50 and Emax values from the IP3 assays were determined by nonlinear regression analysis of four parameter logistic equations (Systat, Systat Inc, Evanston, Ill.). […]

[3] = target: Human 2B (Homo sapiens, UniProt P41595); assay: radioligand binding, human 2B; conditions: read-out: Human 2B binding (IC50 converted to Ki)
Method: as §1
[^3 H]5-HT binding studies. Binding assays were automated using a Biomek 1000 (Beckman Instruments, Fullerton, Calif.) and were performed in triplicate in 0.8 ml total volume. Membrane suspension, 200 μl, (0.04-0.27 mg protein) and 200 μl of drug dilution in water were added to 400 μl of 67 mM Tris-HCl, pH 7.4, containing [^3 H]5-HT, pargyline, CaCl2, and L-ascorbic acid. Final concentrations of pargyline, CaCl2 and L-ascorbic acid were 10 μM, 3 mM and 0.1%, respectively. Tubes were incubated at 37° C. for 15 min or at 0° C. for 2 hours (binding equilibria were verified for both of these conditions), then rapidly filtered using a Brandel cell harvester (Model MB-48R; Brandel, Gaithersburg, Md.) through Whatman GF/B filters which had been presoaked in 0.5% polyethylenimine and precooled with ice-cold 50 mM Tris-HCl, pH 7.4. The filters were then washed rapidly four times with one ml ice-cold 50 mM Tris-HCl, pH 7.4. The amount of [^3 H]5-HT trapped on the filters was determined by liquid scintillation spectrometry (Ready Protein and Beckman LS 6000IC, Beckman Instruments, Fullerton, Calif.). For the saturation experiments, actual free radioligand concentrations were determined by sampling the supernatant of parallel saturation experiments in which bound radioactivity had been separated by centrifugation. […] 5-HT, 10 μM, or 1-naphthylpiperazine (1-NP), 10 μM, defined nonspecific binding. […] Protein was determined by the method of Bradford, using bovine serum albumin as the standard.
as §2

[4] = target: Human 2A (Homo sapiens, UniProt P28223); assay: radioligand binding, human 2A; conditions: read-out: Human 2A binding (IC50 converted to Ki)
Method: The Kd and Bmax values from the saturation assays were determined for best fit to a one-site or a two-site binding model using a partial F-test. De Lean, A., A. A. Hancock, and R. J. Lefkowitz, Mol. Pharmacol. 21: 5-16 (1981). The following equation was used for a one-site binding model, [formula] where Bound=amount of [^3 H]5-HT specifically bound, Bmax =maximum number of binding sites, Kd =equilibrium dissociation constant and [L]=free concentration of [^3 H]5-HT, or a two-site binding model, [formula] where Bound=amount of [^3 H]5-HT specifically bound, Bmax1 =maximum number of high affinity binding sites, Bmax2 =maximum number of low affinity binding sites, Kd1 =equilibrium dissociation constant for the high affinity site, Kd2 =equilibrium dissociation constant for the low affinity site and [L]=free concentration of [^3 H]5-HT. The IC50 values from the competition assays, the binding parameters for the IP3 standard curve and the EC50 and Emax values from the IP3 assays were determined by nonlinear regression analysis of four parameter logistic equations (Systat, Systat Inc, Evanston, Ill.). De Lean, A., A. A. Hancock, and R. J. Lefkowitz, Mol. Pharmacol., 21: 5-16 (1981). The IC50 values were converted to Ki values using the Cheng-Prusoff equation. Cheng, Y., and W. H. Prusoff, Biochem. Pharmacol., 22: 3099-3108 (1973).

[5] = target: T2, 5-HT1c receptor (Bos taurus, UniProt A0AAA9SBU1); assay: 5-HT1c radioligand binding assay ([3H]mesulergine displacement); conditions: read-out: 5HT1C IC50 (binding displacement); choroid plexus; tritiated mesulergine 2.0 nM; 37° C., 15 minutes
T2 sequence (A0AAA9SBU1 33-457): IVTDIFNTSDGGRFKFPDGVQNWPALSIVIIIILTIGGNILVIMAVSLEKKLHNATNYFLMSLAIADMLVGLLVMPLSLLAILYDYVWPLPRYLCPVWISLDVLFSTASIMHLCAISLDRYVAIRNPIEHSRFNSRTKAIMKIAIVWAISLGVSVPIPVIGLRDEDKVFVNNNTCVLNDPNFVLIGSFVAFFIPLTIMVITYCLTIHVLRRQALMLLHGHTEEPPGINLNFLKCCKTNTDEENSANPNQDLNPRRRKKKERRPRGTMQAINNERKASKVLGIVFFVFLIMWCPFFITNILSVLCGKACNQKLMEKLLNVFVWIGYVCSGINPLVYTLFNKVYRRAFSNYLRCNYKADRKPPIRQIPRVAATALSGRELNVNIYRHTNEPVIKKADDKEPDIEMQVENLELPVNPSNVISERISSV
Method: I. Assay for 5-HT1c Affinity
(§3) Beef brain was removed immediately after slaughter, and choroid plexus were dissected over ice. […] Tissues were homogenized in 9 volumes of 0.32 mol/L sucrose and centrifuged at 1,000×g for 10 minutes. The supernatant was centrifuged at 17,000×g for 20 minutes. The pellet was suspended in 100 volumes of 50 mM Tris-HCl (pH7.4), incubated at 37° C. for 10 minutes and centrifuged at 50,000×g for 10 minutes, and the process was repeated three times. The final pellets were frozen at -70° C. and used within 2 weeks. Pellets were rehydrated with physiological buffer prior to use.
(§4) The reactions were terminated by rapid filtration, (Brandel Cell Harvestor), through Whatman GF/B glass filters that had been presoaked in Tris buffer pH 7.4. The filters were then washed 2 times with 5 ml of ice cold Tris buffer pH 7.4. Washed filters were placed in scintillation vials and 10 ml RedySolv, (Brandel), was added and samples were counted in a Searle D-300 beta counter. Means and standard error statistics were calculated for triplicate experimental determinations in certain cases. Mean values were obtained from three or more separate determinations. The incubation time for the reaction mixture was 15 minutes at 37° C.

[6] = tested on: 5-HT1c receptor; assay: as above; conditions: versus 5-HT2, as shown by Table II
Method: I. Assay for 5-HT1c Affinity
as §3, §4

[7] = rat cerebral cortex, tritiated ketanserin 1 nM, 37° C., read-out: 5HT2 IC50 (binding displacement)

T1 sequence (P30994 whole entry): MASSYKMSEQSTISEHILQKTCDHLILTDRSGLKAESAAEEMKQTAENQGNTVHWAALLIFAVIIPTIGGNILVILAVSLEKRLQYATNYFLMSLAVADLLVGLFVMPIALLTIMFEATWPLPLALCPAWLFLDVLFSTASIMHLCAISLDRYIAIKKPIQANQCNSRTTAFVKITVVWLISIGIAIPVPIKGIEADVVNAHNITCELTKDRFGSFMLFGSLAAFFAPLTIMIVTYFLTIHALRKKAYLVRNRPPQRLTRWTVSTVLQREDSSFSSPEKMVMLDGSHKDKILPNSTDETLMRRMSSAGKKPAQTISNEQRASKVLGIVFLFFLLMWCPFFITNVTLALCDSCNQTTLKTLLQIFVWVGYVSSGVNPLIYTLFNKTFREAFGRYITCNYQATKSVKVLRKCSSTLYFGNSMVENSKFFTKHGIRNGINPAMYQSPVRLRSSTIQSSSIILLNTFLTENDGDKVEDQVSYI
5-HT2 receptor, sequence (P14842 whole entry): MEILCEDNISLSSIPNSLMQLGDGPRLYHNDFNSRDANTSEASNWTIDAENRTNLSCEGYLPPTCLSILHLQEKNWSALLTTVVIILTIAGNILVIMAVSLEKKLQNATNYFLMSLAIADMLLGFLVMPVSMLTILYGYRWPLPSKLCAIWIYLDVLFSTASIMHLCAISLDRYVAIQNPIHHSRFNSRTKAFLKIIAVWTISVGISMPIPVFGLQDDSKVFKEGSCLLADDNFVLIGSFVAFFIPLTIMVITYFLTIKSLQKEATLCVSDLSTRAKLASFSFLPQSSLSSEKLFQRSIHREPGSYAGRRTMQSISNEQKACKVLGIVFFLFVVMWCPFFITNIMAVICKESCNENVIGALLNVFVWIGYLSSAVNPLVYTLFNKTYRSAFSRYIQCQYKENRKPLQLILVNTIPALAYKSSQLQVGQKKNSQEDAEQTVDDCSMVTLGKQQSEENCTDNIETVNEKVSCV
Human 2A, sequence (P28223 whole entry): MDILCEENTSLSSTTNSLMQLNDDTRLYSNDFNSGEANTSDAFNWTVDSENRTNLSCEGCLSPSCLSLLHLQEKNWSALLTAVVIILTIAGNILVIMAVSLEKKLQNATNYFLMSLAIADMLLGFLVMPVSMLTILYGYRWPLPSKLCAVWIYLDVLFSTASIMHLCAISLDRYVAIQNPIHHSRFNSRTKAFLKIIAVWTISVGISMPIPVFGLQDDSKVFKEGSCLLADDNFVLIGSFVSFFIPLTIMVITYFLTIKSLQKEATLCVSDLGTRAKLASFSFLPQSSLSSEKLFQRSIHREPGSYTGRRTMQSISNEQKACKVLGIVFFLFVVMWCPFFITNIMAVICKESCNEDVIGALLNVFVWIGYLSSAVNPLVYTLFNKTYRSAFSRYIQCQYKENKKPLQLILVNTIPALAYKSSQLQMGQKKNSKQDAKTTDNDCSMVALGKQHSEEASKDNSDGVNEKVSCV
Human 2B, sequence (P41595 whole entry): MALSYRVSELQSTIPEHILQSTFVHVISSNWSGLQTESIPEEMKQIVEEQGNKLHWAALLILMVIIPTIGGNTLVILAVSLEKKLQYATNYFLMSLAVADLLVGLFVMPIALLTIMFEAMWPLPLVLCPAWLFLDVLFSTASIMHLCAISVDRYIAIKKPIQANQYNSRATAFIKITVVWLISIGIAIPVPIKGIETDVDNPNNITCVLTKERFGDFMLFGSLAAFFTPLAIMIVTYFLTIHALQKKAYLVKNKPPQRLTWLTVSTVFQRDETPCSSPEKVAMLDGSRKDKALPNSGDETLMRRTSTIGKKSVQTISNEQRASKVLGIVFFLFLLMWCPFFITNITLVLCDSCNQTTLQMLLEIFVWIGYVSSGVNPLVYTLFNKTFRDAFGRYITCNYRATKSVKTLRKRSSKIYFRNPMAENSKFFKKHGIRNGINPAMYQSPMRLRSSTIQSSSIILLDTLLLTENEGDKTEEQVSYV

Row | SMILES | pIC50 [1, 7] | pKi [2] | pKi [3] | pKi [4] | pIC50 [5] | 5-HT1c selectivity (low IC50 in 5-HT1c assay, higher IC50 in 5-HT2 assay) [6] | pIC50 [1]
1 | COc1ccc([C@@H](C)[C@@H]2NCCc3c2[nH]c2ccc(C)cc32)cc1OC (relative stereo) [Example 40] | 6.53 | 8.25 | 8.85 | 7.35 | 6.77 |  | 
2 | COc1ccc([C@@H](C)[C@@H]2NCCc3c2[nH]c2cc(C)c(C)cc32)cc1OC (relative stereo) [Example 41, (±) 6,7-dimethyl-1-[(3,4-dimethoxyphenyl)-1-ethyl]-1,2,3,4-tetrahydro-9H-pyrido[3,4-b]indole (Z)-2-butenedioate] | 6.76 | 8.19 | 8.70 | 7.64 | 6.90 |  | 
3 | CC[C@H](c1ccc(OC)c(OC)c1)[C@@H]1NCCc2c1[nH]c1ccc(C)cc21 (relative stereo) [Example 43, (±) 6-methyl-1-[(3,4-dimethoxyphenyl)-1-propyl]-1,2,3,4-tetrahydro-9H-pyrido[3,4-b]indole (Z)-2-butenedioate] | 6.75 |  | 9.06 | 7.76 | 6.86 |  | 
4 | COc1ccc(CC2NCCc3c2[nH]c2c(F)cc(F)cc32)cc1OC (centres unmarked) [Example 6, 6,8-difluoro-1-[(3,4-dimethoxyphenyl)-methyl]-1,2,3,4-tetrahydro-9H-pyrido[3,4-b]indole] | 6.77 |  |  |  | 7.37 | particularly 5-HT1c selective | 
5 | COc1ccc(CC2NCCc3c2[nH]c2c(Br)c(C)ccc32)cc1OC.Cl (centres unmarked) [Example 7, 7-methyl-8-bromo-1-[(3,4-dimethoxyphenyl)-methyl]-1,2,3,4-tetrahydro-9H-pyrido[3,4-b]indole hydrochloride] |  |  |  |  | 8.29 | particularly 5-HT1c selective | < 7.00
6 | COc1ccc(CC2NCCc3c2[nH]c2c3ccc3ccccc32)cc1OC (centres unmarked) [Example 10, 7,8,9,10-tetrahydro-10-[(3,4-dimethoxyphenyl)methyl]-11H-benzo [g]pyrido[3,4-b]indole] | 6.66 |  |  |  | 7.37 | particularly 5-HT1c selective | 
7 | COc1ccc(CC2NCCc3c2[nH]c2ccc(C(C)C)cc32)cc1OC (centres unmarked) [Example 13, 6-(1-methylethyl)-1,2,3,4-tetrahydro-1-[(3,4-dimethoxyphenyl)methyl]-9H-pyrido[3,4b]indole] | 6.36 |  |  |  | 7.32 | particularly 5-HT1c selective | 
8 | COc1ccc(CC2NCCc3c2[nH]c2cc(C)cc(C)c32)cc1OC (centres unmarked) [Example 15, 5,7-dimethyl-1,2,3,4-tetrahydro-1-[(3,4-dimethoxyphenyl)methyl]-9H-pyrido[3,4b]indole hydrochloride] | < 7.00 |  |  |  | 7.85 | particularly 5-HT1c selective | 
9 | COc1ccc(CC2NCCc3c2[nH]c2cc(C)c(C)cc32)cc1OC (centres unmarked) [Example 16, 6,7-dimethyl-1,2,3,4-tetrahydro-1-[(3,4-dimethoxyphenyl)methyl]-9H-pyrido[3,4b]indole] | 5.68 |  |  |  | 7.20 | particularly 5-HT1c selective | 
10 | COc1ccc(CC2NCCc3c2[nH]c2ccc(C)cc32)c(OC)c1OC (centres unmarked) [Example 22, 6-methyl-1-[(2,3,4-trimethoxyphenyl)-methyl]-1,2,3,4-tetrahydro-9H-pyrido[3,4-b]indole hydrochloride] |  | 8.27 |  |  | 7.52 |  | 5.85
